According to patent US11530222B2, “Substituted pyrrolopyrimidine and pyrazolopyrimidine as Bruton's tyrosine kinase (BTK) degraders” (ACCUTAR BIOTECHNOLOGY INC., priority 2021, dated 2022):

Target: T1, BTK (Homo sapiens, UniProt Q06187)
T1 construct: BTK Degradative Activity of Exemplary Compounds of the Present Disclosure in a RAMOS Cell Line; host or cells: RAMOS
Assay: BTK degradative activity in a RAMOS cell line (Western blot)
Assay type: cell-based
Settings: 6 hours after administration, read-out: RAMOS BTK Degradation DC50
Method: RAMOS (ATCC) cells were plated in 24-well plates at 8×10^5 cells/well in the RPMI growth medium containing 10% heat-inactivated FBS and 1× Penicillin Streptomycin, and then incubated at 37° C. overnight. The following day, the test compound was administered to the cells by using 1000× compound stock solution prepared in DMSO at various concentrations. After administration of the compound, the cells were then incubated at 37° C. for 6 hours.
Upon completion, the cells were collected by centrifugation and lysed in Laemmli sample buffer (1×; VWR International). Proteins in cell lysate were separated by SDS-PAGE and transferred to Odyssey nitrocellulose membranes (Licor) with Iblot® dry blotting transfer system (ThermoFisher). Nonspecific binding was blocked by incubating membranes with Intercept Blocking Buffer (Licor) for 1 hour at room temperature with gentle shaking. The membranes were then incubated overnight at 4° C. with primary antibodies anti-BTK (Cell signaling, cat. #8547) and anti-GAPDH (Cell signaling, cat. #5179) diluted in Intercept Blocking Buffer containing 0.1% Tween 20. After washing 3 times with TBS-T, the membranes were incubated with IRDye® 800CW goat anti-mouse IgG (1:20,000, Licor) or IRDye® 800CW goat anti-rabbit IgG (1:20,000, Licor) for 1 hour. After TBS-T washes, membranes were rinsed in TBS and scanned on Odyssey® CLx Imaging System (Licor). The bands were quantified using Image Studio™ Software (Licor).
Table 3 summarizes the BTK degradative activity of exemplary compounds of the present disclosure in a RAMOS cell line 6 hours after administration. The DC50 values (i.e., the concentration of test compound at which 50% of the target protein is degraded) were calculated. A designation of “A” corresponds to a DC50 value less than 10 nM. A designation of “B” corresponds to a DC50 value greater than or equal to 10 nM and less than 100 nM. A designation of “C” corresponds to a DC50 value greater than or equal to 100 nM.

T1 sequence (Q06187 whole entry): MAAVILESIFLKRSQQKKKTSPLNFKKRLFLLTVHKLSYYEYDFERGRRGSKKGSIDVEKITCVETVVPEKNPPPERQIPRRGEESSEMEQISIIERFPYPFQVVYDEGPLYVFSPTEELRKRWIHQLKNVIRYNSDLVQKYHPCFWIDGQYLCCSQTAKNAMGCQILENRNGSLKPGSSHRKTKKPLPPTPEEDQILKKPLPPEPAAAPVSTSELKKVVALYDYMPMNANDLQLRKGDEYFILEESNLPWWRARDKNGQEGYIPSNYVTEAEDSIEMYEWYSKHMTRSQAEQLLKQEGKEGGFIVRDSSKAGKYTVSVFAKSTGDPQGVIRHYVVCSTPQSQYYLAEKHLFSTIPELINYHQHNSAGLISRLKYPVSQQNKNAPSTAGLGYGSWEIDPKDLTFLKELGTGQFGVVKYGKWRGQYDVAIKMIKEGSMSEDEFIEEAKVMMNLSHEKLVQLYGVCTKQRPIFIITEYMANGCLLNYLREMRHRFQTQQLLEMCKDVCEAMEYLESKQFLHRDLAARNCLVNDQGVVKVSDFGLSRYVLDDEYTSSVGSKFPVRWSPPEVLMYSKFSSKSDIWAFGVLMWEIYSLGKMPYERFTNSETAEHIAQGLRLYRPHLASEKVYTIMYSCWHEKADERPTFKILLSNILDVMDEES

DC50 [nM]	SMILES
10 to 100	O=C1CCC(N2C(=O)c3ccc(N4CCN(CCCC(=O)N5CCC(Nc6ncnc7[nH]cc(C(=O)c8ccc(Oc9ccccc9)cc8Cl)c67)CC5)CC4)cc3C2=O)C(=O)N1 (stereo not drawn) [Compound 23, 5-(4-(4-(4-((5-(2-chloro-4-phenoxybenzoyl)-7H-pyrrolo[2,3-d]pyrimidin-4-yl)amino)piperidin-1-yl)-4-oxobutyl)piperazin-1-yl)-2-(2,6-dioxopiperidin-3-yl)isoindoline-1,3-dione]
≥ 100	O=C1CCC(N2C(=O)c3ccc(OCCCCCN4CCN(c5ccc(C(=O)N6CCC[C@@H](Nc7ncnc8[nH]cc(C(=O)c9ccc(Oc%10ccccc%10)cc9Cl)c78)C6)cn5)CC4)cc3C2=O)C(=O)N1 (stereo partly drawn) [Compound 6, 5-((5-(4-(5-((R)-3-((5-(2-chloro-4-phenoxybenzoyl)-7H-pyrrolo [2,3-d]pyrimidin-4-yl)amino)piperidine-1-carbonyl)pyridin-2-yl)piperazin-1-yl)pentyl)oxy)-2-(2,6-dioxopiperidin-3-yl)isoindoline-1,3-dione]
≥ 100	O=C1CCC(N2C(=O)c3cccc(C#CCCCCCC(=O)N4CCC(Nc5ncnc6[nH]cc(C(=O)c7ccc(Oc8ccccc8)cc7Cl)c56)CC4)c3C2=O)C(=O)N1 (stereo not drawn) [Compound 38, 4-(8-(4-((5-(2-chloro-4-phenoxybenzoyl)-7H-pyrrolo[2,3-d]pyrimidin-4-yl)amino)piperidin-1-yl)-8-oxooct-1-yn-1-yl)-2-(2,6-dioxopiperidin-3-yl)isoindoline-1,3-dione]
10 to 100	O=C1CCC(N2C(=O)c3ccc(N4CCN(CCCCN5CCC(Nc6ncnc7[nH]cc(C(=O)c8ccc(Oc9ccccc9)cc8Cl)c67)CC5)CC4)cc3C2=O)C(=O)N1 (stereo not drawn) [Compound 27, 5-(4-(4-(4-((5-(2-chloro-4-phenoxybenzoyl)-7H-pyrrolo[2,3-d]pyrimidin-4-yl)amino)piperidin-1-yl)butyl)piperazin-1-yl)-2-(2,6-dioxopiperidin-3-yl)isoindoline-1,3-dione]
≥ 100	COc1ccc(C(=O)N2CCN(CCCCC(=O)N3CCC(Nc4ncnc5[nH]cc(C(=O)c6ccc(Oc7ccccc7)cc6Cl)c45)CC3)CC2)cc1N1CCC(=O)NC1=O [Compound 72, 1-(5-(4-(5-(4-((5-(2-chloro-4-phenoxybenzoyl)-7H-pyrrolo[2,3-d]pyrimidin-4-yl)amino)piperidin-1-yl)-5-oxopentyl)piperazine-1-carbonyl)-2-methoxyphenyl)dihydropyrimidine-2,4(1H,3H)-dione]
≥ 100	O=C1CC[C@H](N2Cc3cc(N4CCN(CCC5CCN(c6ccc(Nc7ncnc8[nH]cc(C(=O)c9ccc(Oc%10ccccc%10)cc9Cl)c78)cc6F)CC5)CC4)ccc3C2=O)C(=O)N1 [Compound 45, (S)-3-(5-(4-(2-(1-(4-((5-(2-chloro-4-phenoxybenzoyl)-7H-pyrrolo[2,3-d]pyrimidin-4-yl)amino)-2-fluorophenyl)piperidin-4-yl)ethyl)piperazin-1-yl)-1-oxoisoindolin-2-yl)piperidine-2,6-dione]
≥ 100	COc1ccc(C(=O)N2CCC(N3CCC(CC(=O)N4CCC[C@@H](Nc5ncnc6[nH]cc(C(=O)c7ccc(Oc8ccccc8)cc7Cl)c56)C4)CC3)CC2)cc1N1CCC(=O)NC1=O [Compound 77, (R)-1-(5-(4-(2-(3-((5-(2-chloro-4-phenoxybenzoyl)-7H-pyrrolo[2,3-d]pyrimidin-4-yl)amino)piperidin-1-yl)-2-oxoethyl)-[1,4′-bipiperidine]-1′-carbonyl)-2-methoxyphenyl) dihydropyrimidine-2,4(1H,3H)-dione]
10 to 100	O=C1CC[C@H](N2Cc3cc(N4CCN(CCCCCCC(=O)N5CCC(Nc6ncnc7[nH]cc(C(=O)c8ccc(Oc9ccccc9)cc8Cl)c67)CC5)CC4)ccc3C2=O)C(=O)N1 [Compound 21, (S)-3-(5-(4-(7-(4-((5-(2-chloro-4-phenoxybenzoyl)-7H-pyrrolo[2,3-d]pyrimidin-4-yl)amino)piperidin-1-yl)-7-oxoheptyl)piperazin-1-yl)-1-oxoisoindolin-2-yl)piperidine-2,6-dione]
10 to 100	O=C1CC[C@H](N2Cc3cc(N4CCN(CCCCCC(=O)N5CCC[C@@H](Nc6ncnc7[nH]cc(C(=O)c8ccc(Oc9ccccc9)cc8Cl)c67)C5)CC4)ccc3C2=O)C(=O)N1 [Compound 16, (S)-3-(5-(4-(6-((R)-3-((5-(2-chloro-4-phenoxybenzoyl)-7H-pyrrolo[2,3-d]pyrimidin-4-yl)amino)piperidin-1-yl)-6-oxohexyl)piperazin-1-yl)-1-oxoisoindolin-2-yl)piperidine-2,6-dione]
< 10	O=C1CCC(N2C(=O)c3ccc(N4CCN(C5CC(CC(=O)N6CCC[C@@H](Nc7ncnc8[nH]cc(C(=O)c9ccc(Oc%10ccccc%10)cc9Cl)c78)C6)C5)CC4)cc3C2=O)C(=O)N1 (stereo partly drawn) [Compound 43, 5-(4-(3-(2-((R)-3-((5-(2-chloro-4-phenoxybenzoyl)-7H-pyrrolo[2,3-d]pyrimidin-4-yl)amino)piperidin-1-yl)-2-oxoethyl)cyclobutyl)piperazin-1-yl)-2-(2,6-dioxopiperidin-3-yl)isoindoline-1,3-dione]
10 to 100	O=C1CCC(N2C(=O)c3ccc(N4CCN(C5CC(CC(=O)N6CCC(Nc7ncnc8[nH]cc(C(=O)c9ccc(Oc%10ccccc%10)cc9Cl)c78)CC6)C5)CC4)cc3C2=O)C(=O)N1 (stereo not drawn) [Compound 37, 5-(4-(3-(2-(4-((5-(2-chloro-4-phenoxybenzoyl)-7H-pyrrolo[2,3-d]pyrimidin-4-yl)amino)piperidin-1-yl)-2-oxoethyl)cyclobutyl)piperazin-1-yl)-2-(2,6-dioxopiperidin-3-yl)isoindoline-1,3-dione]
10 to 100	O=C1CC[C@H](N2C(=O)c3ccc(N4CCN(CC5CCN(C(=O)N6CCC[C@@H](Nc7ncnc8[nH]cc(C(=O)c9ccc(Oc%10ccccc%10)cc9Cl)c78)C6)CC5)CC4)cc3C2=O)C(=O)N1 [Compound 33, 5-(4-((1-((R)-3-((5-(2-chloro-4-phenoxybenzoyl)-7H-pyrrolo[2,3-d]pyrimidin-4-yl)amino)piperidine-1-carbonyl)piperidin-4-yl)methyl)piperazin-1-yl)-2-((S)-2,6-dioxopiperidin-3-yl)isoindoline-1,3-dione]
≥ 100	O=C1CCC(N2Cc3c(C#CCCCCCCC(=O)N4CCC(Nc5ncnc6[nH]cc(C(=O)c7ccc(Oc8ccccc8)cc7Cl)c56)CC4)cccc3C2=O)C(=O)N1 (stereo not drawn) [Compound 39, 3-(4-(9-(4-((5-(2-chloro-4-phenoxybenzoyl)-7H-pyrrolo[2,3-d]pyrimidin-4-yl)amino)piperidin-1-yl)-9-oxonon-1-yn-1-yl)-1-oxoisoindolin-2-yl)piperidine-2,6-dione]
10 to 100	O=C1CC[C@H](N2C(=O)c3ccc(N4CCN(CCCCCCC(=O)N5CCC(Nc6ncnc7[nH]cc(C(=O)c8ccc(Oc9ccccc9)cc8Cl)c67)CC5)CC4)cc3C2=O)C(=O)N1 [Compound 22, 5-(4-(7-(4-((5-(2-chloro-4-phenoxybenzoyl)-7H-pyrrolo[2,3-d]pyrimidin-4-yl)amino)piperidin-1-yl)-7-oxoheptyl)piperazin-1-yl)-2-(2,6-dioxopiperidin-3-yl)isoindoline-1,3-dione]
≥ 100	O=C1CC[C@H](N2Cc3cc(N4CCN(CC5CCN(c6ccc(Nc7ncnc8[nH]cc(C(=O)c9ccc(Oc%10ccccc%10)cc9Cl)c78)cc6F)CC5)CC4)ccc3C2=O)C(=O)N1 [Compound 46, (S)-3-(5-(4-((1-(4-((5-(2-chloro-4-phenoxybenzoyl)-7H-pyrrolo[2,3-d]pyrimidin-4-yl)amino)-2-fluorophenyl)piperidin-4-yl)methyl)piperazin-1-yl)-1-oxoisoindolin-2-yl)piperidine-2,6-dione]
